# According to patent US10869879B2, “Combinations to treat cancer” (EVOL SCIENCE LLC, priority 2017, dated 2020):
# How the values were obtained:
# [1] = test system: pancreatic cancer cells (BxPC3M1, BxPC3, Panc1, MiaPaca2); format: cell-based; conditions: vemurafenib 10 μM versus DMSO, all 4 cell lines, n=3
# [2] = test system: BxPC3M1, BxPC3, Panc1, and MiaPaca2; test: Cell proliferation assay; format: cell-based; conditions: vemurafenib 10 μM, all 4 cell lines (WT BRAF)
# Protocol: FIG. 9A, FIG. 9B, FIG. 9C, FIG. 9D, FIG. 9E, FIG. 9F, FIG. 9G and FIG. 9H illustrate vemurafenib induced cell proliferation and serine synthesis in pancreatic cancer cell lines. FIG. 9A: Cell proliferation assay of BxPC3 cells treated with vemurafenib (10 μM). 100000 cells plated on day 0. FIG. 9B: Cell proliferation assay of BxPC3M1 cells treated with vemurafenib (10 μM). 100000 cells plated on day 0. FIG. 9C: Cell proliferation assay of Panc1 cells treated with vemurafenib (10 μM). 100000 cells plated on day 0. FIG. 9D: Cell proliferation assay of MiaPaca2 cells treated with vemurafenib (10 μM). 100000 cells plated on day 0. FIG. 9E: Mass spectrometry: PHGDH protein expression in pancreatic cancer cells treated with DMSO or vemurafenib (10 μM) (n=3). FIG. 9F: Mass spectrometry: PSAT1 protein expression in pancreatic cancer cells treated with DMSO or vemurafenib (10 μM) (n=3). FIG. 9G: Mass spectrometry: PSPH protein expression in pancreatic cancer cells treated with DMSO or vemurafenib (10 μM) (n=3). FIG. 9H: Mass spectrometry: SARS protein expression in pancreatic cancer cells treated with DMSO or vemurafenib (10 μM) (n=3).
# Next, we tested the effect of vemurafenib treatment on pancreatic cancer cell proliferation. All 4 of the cell lines (BxPC3M1, BxPC3, Panc1, and MiaPaca2) tested express WT BRAF. […]
# SK-MEL-28VR1 cells [3] = test: Colony formation assay; format: cell-based, human; conditions: for cell death with serine depletion: glucose, and glycine depleted media, not with complete media
# Protocol: (§1) For colony formation assays, 400 cells per well were seeded into 24-well plates on day 0. Cells were treated with DMSO or gemcitabine at various doses on day 1 for 24 hours. Gemcitabine was washed out on day 2, vemurafenib, dabrafenib, and methotrexate was added. On day 4, drugs added on day 2 was washed out. Cells were allowed to grow for a subsequent 7 days before being fixed (10% methanol+10% acetic acid) and stained with crystal violet (0.4% in 20% ethanol) for quantitation as previously described.
# (§2) All proteomic trend plots were constructed using the Evol Science suite (ES). Volcano plotting serves to visually separate data points in two axes by both their expression ratio and their statistical significance. This enables a simple method of determining the most significant, differentially expressed proteins within a given comparison. For each protein, replicate values are gathered from each experiment to be compared to create two distributions of values. Student's T-Test of identical mean is used between the two independent samples of values to compare the distributions and generate a p-value of statistical significance. The −log 10 of the p-value is then taken to provide the Y coordinate, in graphical view. The X coordinate, Ratio, is given by the log 10 of the average of replicate ratio values for a given experiment. Combination Index calculations, Fa-CI plots, and isobolograms were constructed using the Compusyn software program using the Chou-Tulalay method. All plots representing colony formation assays were constructed using the Prism7 software (Graphpad.com). Two-way Anova tests were used to calculate p values.
# BxPC3M1 cells = test: Colony formation assay; format: cell-based, human; conditions: vemurafenib 5 μM, glucose, and glycine depleted media, not with complete media
# Protocol: as §1, §2
# SK-MEL-28 cells [4] = test: Colony formation assay; format: cell-based; conditions: Homo sapiens, parental cell line, FIG. 4B, read-out: IC50 of vemurafenib, colony formation
# Protocol: as §1
# as §2, with “Combination Index calculations, Fa-CI plots, and isobolograms were constructed using the Compusyn software program using the Chou-Tulalay method. All plots representing colony formation assays were constructed using the Prism7 software (Graphpad.com). Two-way Anova tests were used to calculate p values.” left out
# [5] = test system: SK-MEL-28VR1 vs SK-MEL-28 cells; conditions: vemurafenib treatment, SK-MEL-28VR1 compared to parental SK-MEL-28
# SK-MEL-28VR1 cells [6] = test: Mass spectrometry, FAM129B protein abundance; format: cell-based, human; conditions: FIG. 5A, n=3
# Protocol: (§3) FIG. 5A and FIG. 5B illustrate a characterization of SK-MEL-28VR1 cells. FIG. 5A: Unbiased Mass spectrometry: FAM129B protein abundance following differential treatments of SK-MEL-28 and SK-MEL-28VR1 cells (n=3). FIG. 5B: illustrates a characterization of SK-MEL-28VR1 cells. Western blot of PHGDH protein expression in differentially treated SK-MEL-28 and SK-MEL-28VR1 cells. Alpha tubulin used as loading control. 50 μg of protein loaded in each lane.
# (§4) Samples were dried down and re-dissolved in 2.5% ACN/0.1% formic acid for liquid chromatography-tandem mass spectrometry (LC-MS/MS) analysis carried out on a Q-Exactive HF (Thermo Fisher Scientific) coupled with a U3000 RSLCnano HPLC device (Thermo Fisher Scientific). 5 μL of sample were loaded onto a C18 trap column (PepMap100; 300-μm i.d.×5 mm, 5-μm particle size, 100 Å; Thermo Fisher Scientific) at a flow rate of 10 μL min^−1. […] The runs were analyzed using Progenesis-QI for Proteomics (Nonlinear dynamics). […] The peptide and protein quantification used a synthetic control peptide for normalization across the samples. […]
# SK-MEL-28 cells [7] = test: Mass spectrometry, FAM129B protein abundance; format: cell-based; conditions: parental SK-MEL-28 cells
# Protocol: as §3, §4
smiles,measurement,setting,value
"CCCS(=O)(=O)Nc1ccc(F)c(C(=O)c2c[nH]c3ncc(-c4ccc(Cl)cc4)cc23)c1F [vemurafenib, Vemurafenib]","PHGDH, PSAT1, PSPH, and SARS protein abundance",[1],increased
same,cell proliferation under vemurafenib treatment,[2],increased proliferation
same,IC50,"SK-MEL-28VR1 cells [3]; Homo sapiens, data not shown, read-out: IC50 of vemurafenib, colony formation",~30 µM
same,cell death with serine depletion,SK-MEL-28VR1 cells [3]; vemurafenib 2.5 μM,> 50%
same,cell death with serine depletion,SK-MEL-28VR1 cells [3]; vemurafenib 5 μM,> 50%
same,cell death with serine depleted media,BxPC3M1 cells,> 50%
same,IC50,SK-MEL-28 cells [4],~1 µM
same,"Fold differential, ASNS",[5]; protein ASNS,8 fold
same,"Fold differential, CYP51A1",[5]; protein CYP51A1,8 fold
same,"Fold differential, DUS2",[5]; protein DUS2,7 fold
same,"Fold differential, FAM129B",[5]; protein FAM129B,9 fold
same,"Fold differential, KRT19",[5]; protein KRT19,5 fold
same,"Fold differential, LARS2",[5]; protein LARS2,6 fold
same,"Fold differential, MPHOSPH6",[5]; protein MPHOSPH6,9 fold
same,"Fold differential, MRPL13",[5]; protein MRPL13,2 fold
same,"Fold differential, PDLIM7",[5]; protein PDLIM7,9 fold
same,"Fold differential, PHGDH",[5]; protein PHGDH,2 fold
same,"Fold differential, PPP1R7",[5]; protein PPP1R7,8 fold
same,"Fold differential, PSAT1",[5]; protein PSAT1,8 fold
same,"Fold differential, PSPH",[5]; protein PSPH,5 fold
same,"Fold differential, RUVBL1",[5]; protein RUVBL1,3 fold
same,"Fold differential, S100A11",[5]; protein S100A11,8 fold
same,"Fold differential, SARS2",[5]; protein SARS2,4 fold
same,"Fold differential, SARS",[5]; protein SARS,6 fold
same,"Fold differential, SBDS",[5]; protein SBDS,10 fold
same,"Fold differential, SPATA20",[5]; protein SPATA20,12 fold
same,"Fold differential, TXNDC17",[5]; protein TXNDC17,2 fold
same,"Cytoplasmic FAM129B abundance increase, vemurafenib compared to vehicle treatment",SK-MEL-28VR1 cells [6],~6 fold
same,FAM129B abundance in response to vemurafenib treatments,SK-MEL-28 cells [7],decreased
